This note sets out measurements from patent US20060264460A1 (Wyeth, priority 2005, published 2006).

Some results are limits rather than exact numbers.

The target in the test is T1, human Cot/Tpl2 kinase (Homo sapiens, UniProt P41279).
T1 construct: human Cot/Tpl2 kinase construct encoding residues 30-398; 6His (N); made in house; host or cells: Sf9 insect cells, baculovirus system (BD Biosciences)
T1 sequence (P41279 30-398): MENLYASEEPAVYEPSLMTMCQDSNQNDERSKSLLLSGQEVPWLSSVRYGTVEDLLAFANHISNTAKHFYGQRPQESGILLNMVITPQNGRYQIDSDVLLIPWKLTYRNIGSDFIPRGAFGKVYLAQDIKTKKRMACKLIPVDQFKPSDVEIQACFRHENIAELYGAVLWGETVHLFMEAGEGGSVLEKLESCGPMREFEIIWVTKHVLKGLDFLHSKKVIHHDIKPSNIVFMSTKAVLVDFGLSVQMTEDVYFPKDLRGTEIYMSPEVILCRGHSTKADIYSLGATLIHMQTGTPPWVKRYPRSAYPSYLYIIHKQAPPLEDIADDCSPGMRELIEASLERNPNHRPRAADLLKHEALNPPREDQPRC
The test is described as follows: Tpl2/Cot kinase assay: GST-MEK1 phosphorylation detected by ELISA (DELFIA Eu). The class given is biochemical. As to conditions: Tpl2/Cot kinase, GST-MEK1 substrate, 50 uM ATP. The essentials:
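Substrate phosphorylation (GST-MEK1 Ser217/221) quantified by DELFIA europium ELISA, yielding IC50 values. Reaction: 1 h at 30° C, pH 7.2 MOPS buffer, 50 uM ATP, 35 nM GST-MEK1, 0.4 nM monomeric His-Tpl2 purified from Sf9 cells, compounds at 1% final DMSO; stopped with EDTA.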
In general terms: In an ELISA, binding on a coated surface is turned into a signal by an enzyme label.
For orientation: IC50 means the concentration at which inhibition is half-maximal. Read a low IC50 as higher potency. The molecule `COCCNC(=O)Cn1cc(CNc2cc(Cl)c3ncc(C#N)c(Nc4ccc(F)c(Cl)c4)c3c2)nn1` [Example 816] displayed an IC50 of 15 nM.
For the molecule `CN1CCCC1CCNC(=O)Cn1cc(CNc2cc(Cl)c3ncc(C#N)c(Nc4ccc(F)c(Cl)c4)c3c2)nn1` (stereo not drawn) [Example 817], the IC50 worked out at 6.9 nM.
Turning to `CN(C)CCNC(=O)Cn1cc(CNc2cc(Cl)c3ncc(C#N)c(Nc4ccc(F)c(Cl)c4)c3c2)nn1` [Example 818], the IC50 is 6.8 nM.
The molecule `N#Cc1cnc2c(Cl)cc(NCc3cn(CC(=O)NCc4cccnc4)nn3)cc2c1Nc1ccc(F)c(Cl)c1` [Example 819] gave an IC50 of 0.8 nM.
`N#Cc1cnc2c(Cl)cc(NCc3cn(CC(=O)NCCN4CCOCC4)nn3)cc2c1Nc1ccc(F)c(Cl)c1` [Example 820]: the IC50 is 14 nM.
The molecule `N#Cc1cnc2c(Cl)cc(NCc3cn(CC(=O)Nc4cccnc4)nn3)cc2c1Nc1ccc(F)c(Cl)c1` [Example 821] came in with an IC50 of 2.7 nM.
Turning to `CN1CCN(C(=O)Cn2cc(CNc3cc(Cl)c4ncc(C#N)c(Nc5ccc(F)c(Cl)c5)c4c3)nn2)CC1` [Example 822], the IC50 was determined as 13 nM.
`CN1CCCC1CCn1cc(CN(Cc2cn(CCC3CCCN3C)nn2)c2cc(Br)c3ncc(C#N)c(Nc4ccc(F)c(Cl)c4)c3c2)nn1` (stereo not drawn) [Example 823]: half-maximal inhibition (IC50) was put at 860 nM.
In turn, `N#Cc1cnc2c(Cl)cc(NCC3CCNCC3)cc2c1Nc1ccc(F)c(Cl)c1` [Example 824] showed a half-inhibitory concentration (IC50) of 1240 nM.
With `CN1CCC(Cn2cc(CNc3cc(Cl)c4ncc(C#N)c(Nc5ccc(F)c(Cl)c5)c4c3)nn2)CC1` [Example 825] the figure was 37 nM; with `CCN1CCC(Cn2cc(CNc3cc(Cl)c4ncc(C#N)c(Nc5ccc(F)c(Cl)c5)c4c3)nn2)CC1` [Example 826], 35 nM; with `CC(C)N1CCC(Cn2cc(CNc3cc(Cl)c4ncc(C#N)c(Nc5ccc(F)c(Cl)c5)c4c3)nn2)CC1` [Example 827], 11 nM.
The molecule `CN(C)C(=O)N1CCC(Cn2cc(CNc3cc(Cl)c4ncc(C#N)c(Nc5ccc(F)c(Cl)c5)c4c3)nn2)CC1` [Example 828] displayed an IC50 of 2.6 nM.
As to `CN(C)C(=O)N1CCC(CCn2cc(CNc3cc(Cl)c4ncc(C#N)c(Nc5ccc(F)c(Cl)c5)c4c3)nn2)CC1` [Example 830], the IC50 amounted to 19 nM.
With `CCNC(=O)N1CCC(CCn2cc(CNc3cc(Cl)c4ncc(C#N)c(Nc5ccc(F)c(Cl)c5)c4c3)nn2)CC1` [Example 831] the figure was 9.3 nM; with `CC(=O)N1CCC(CCn2cc(CNc3cc(Cl)c4ncc(C#N)c(Nc5ccc(F)c(Cl)c5)c4c3)nn2)CC1` [Example 832], 1.2 nM.
Molecule `N#Cc1cnc2c(Br)cc(NCc3cn(CCOC(N)=O)nn3)cc2c1Nc1ccc(F)c(Cl)c1` [Example 833] registered an IC50 of 9 nM.
With `CN(C)C(=O)Cn1cc(CNc2cc(Br)c3ncc(C#N)c(Nc4ccc(F)c(Cl)c4)c3c2)nn1` [Example 834] the figure was 14 nM; with `CCN(Cc1cn(CC(=O)N(C)C)nn1)c1cc(Br)c2ncc(C#N)c(Nc3ccc(F)c(Cl)c3)c2c1` [Example 835], 9.1 nM.
With `Cc1cc(Cn2cc(CNc3cc(Cl)c4ncc(C#N)c(Nc5ccc(F)c(Cl)c5)c4c3)nn2)ccn1` [Example 837] the figure was 11 nM; with `N#Cc1cnc2c(Br)cc(NCc3cn(C4CN5CCC4CC5)nn3)cc2c1Nc1ccc(F)c(Cl)c1` (stereo not drawn) [Example 838], 10 nM.
Turning to `Cc1ncccc1Cn1cc(CNc2cc(Cl)c3ncc(C#N)c(Nc4ccc(F)c(Cl)c4)c3c2)nn1` [Example 840], it took 10 nM to reach half-maximal inhibition (IC50).
`N#Cc1cnc2c(Cl)cc(NCc3cn(CCCN4CCC(F)(F)CC4)nn3)cc2c1Nc1ccc(F)c(Cl)c1` [Example 841] registered an IC50 of 29 nM.
`Cc1c(Cn2cc(CNc3cc(Cl)c4ncc(C#N)c(Nc5ccc(F)c(Cl)c5)c4c3)nn2)ccc[n+]1[O-]` [Example 842] came in with an IC50 of 0.9 nM.
For `CC(=O)N(CCNc1cc(Cl)c2ncc(C#N)c(Nc3ccc(F)c(Cl)c3)c2c1)Cc1cccnc1` [Example 843], the IC50 is 58 nM.
Consider `CC(=O)N(CCNc1cc(Cl)c2ncc(C#N)c(Nc3ccc(F)c(Cl)c3)c2c1)Cc1ccncc1` [Example 844], for which the concentration for half-maximal inhibition (IC50) is 60 nM.
Consider `N#Cc1cnc2c(Cl)cc(NCc3ccncc3)cc2c1Nc1ccc(F)c(Cl)c1` [Example 845], for which the IC50 was 22 nM.
The molecule `CC(=O)N(CCNc1cc(Cl)c2ncc(C#N)c(Nc3ccc(F)c(Cl)c3)c2c1)Cc1ccccn1` [Example 846] registered an IC50 of 170 nM.
With `CC(C)Cn1cc(CNc2cc(Cl)c3ncc(C#N)c(Nc4ccc(F)c(Cl)c4)c3c2)nn1` [Example 847] the figure was 170 nM; with `CCN(CC1CCN(C(=O)c2cccnc2)CC1)c1cc(Cl)c2ncc(C#N)c(Nc3ccc(F)c(Cl)c3)c2c1` [Example 848], 380 nM; with `CN1CCC(CNc2cc(Cl)c3ncc(C#N)c(Nc4ccc(F)c(Cl)c4)c3c2)CC1` [Example 849], 1910 nM.
Consider `N#Cc1cnc2c(Cl)cc(NCC3CCN(C(=O)c4cccnc4)CC3)cc2c1Nc1ccc(F)c(Cl)c1` [Example 850], for which the IC50 was determined as 130 nM.
On to `CN(C)C(=O)Cn1cc(CN(C)c2cc(Cl)c3ncc(C#N)c(Nc4ccc(F)c(Cl)c4)c3c2)nn1` [Example 851], for which the half-maximal inhibitory concentration (IC50) was found to be 150 nM.
As to `N#Cc1cnc2c(Cl)cc(NCc3cn(CCCN4C(=O)c5ccccc5C4=O)nn3)cc2c1Nc1ccc(F)c(Cl)c1` [Example 852], half-maximal inhibition (IC50) was put at 120 nM.
`CS(=O)(=O)NCCNc1cc(Cl)c2ncc(C#N)c(Nc3ccc(F)c(Cl)c3)c2c1` [Example 853]: the IC50 turned out to be 880 nM.
Take `N#Cc1cnc2c(Cl)cc(NCCNS(=O)(=O)c3ccccc3)cc2c1Nc1ccc(F)c(Cl)c1` [Example 854]: the IC50 was 1960 nM.
`N#Cc1cnc2c(Cl)cc(NCCNS(=O)(=O)c3cccnc3)cc2c1Nc1ccc(F)c(Cl)c1` [Example 855] came in with an IC50 above 3000 nM.
With `N#Cc1cnc2c(Cl)cc(NCCNS(=O)(=O)c3ccccn3)cc2c1Nc1ccc(F)c(Cl)c1` [Example 856] the figure was 820 nM; with `N#Cc1cnc2c(Cl)cc(NCCNS(=O)(=O)Cc3ccccn3)cc2c1Nc1ccc(F)c(Cl)c1` [Example 857], 670 nM.
Then `N#Cc1ccc(S(=O)(=O)NCCNc2cc(Cl)c3ncc(C#N)c(Nc4ccc(F)c(Cl)c4)c3c2)cc1` [Example 858], with 790 nM.
In turn, `N#Cc1cnc2c(Cl)cc(NCCNC(=O)c3ccccn3)cc2c1Nc1ccc(F)c(Cl)c1` [Example 859] yielded an IC50 above 3000 nM.
The molecule `N#Cc1cnc2c(Cl)cc(NCCNC(=O)c3cccnc3)cc2c1Nc1ccc(F)c(Cl)c1` [Example 860] yielded an IC50 above 3000 nM.
Molecule `N#Cc1cnc2c(Cl)cc(NCCNC(=O)Cc3ccccn3)cc2c1Nc1ccc(F)c(Cl)c1` [Example 861] yielded an IC50 above 3000 nM.
For `N#Cc1cnc2c(Cl)cc(NCCNC(=O)Cc3cccnc3)cc2c1Nc1ccc(F)c(Cl)c1` [Example 862], the IC50 was above 3000 nM.
Then `N#Cc1cnc2c(Cl)cc(NCCNC(=O)Cc3ccncc3)cc2c1Nc1ccc(F)c(Cl)c1` [Example 863], with 1040 nM; and `N#Cc1cnc2c(Cl)cc(NCCNC(=O)c3cncnc3)cc2c1Nc1ccc(F)c(Cl)c1` [Example 864], with 650 nM; and `CC(=O)N1CCC(CN(C(C)=O)c2cc(Cl)c3ncc(C#N)c(Nc4ccc(F)c(Cl)c4)c3c2)CC1` [Example 865], with 380 nM.
In the case of `CC(=O)N1CCC(CNc2cc(Cl)c3ncc(C#N)c(Nc4ccc(F)c(Cl)c4)c3c2)CC1` [Example 866], the IC50 was determined as 260 nM.
